Data as given in publication PMC8317962, “Development of tacrine clusters as positively cooperative systems for the inhibition of acetylcholinesterase” (Journal of Enzyme Inhibition and Medicinal Chemistry, 2021).
Where two headings read alike, the source gives them in different places.

How the values were obtained:
[1] = molecular target: T1, acetylcholinesterase from Electrophorus electricus (Electrophorus electricus, UniProt O42275); assay: biochemical; type: biochemical; settings: for IC50: read-out: AChE IC50; for AChE rp (relative inhibition potency): rp = IC50 (mono-tacrine)/IC50 (tetra-tacrine); for AChE rp/n (inhibition potency on valency-corrected basis): rp/n = rp/number of tacrine rings; for less active when connected to the central multivalent sugar scaffold: from rp/n of the corresponding tetra-tacrine
T1 construct: purchased Sigma Aldrich type V-S
T1 sequence (O42275 24-633): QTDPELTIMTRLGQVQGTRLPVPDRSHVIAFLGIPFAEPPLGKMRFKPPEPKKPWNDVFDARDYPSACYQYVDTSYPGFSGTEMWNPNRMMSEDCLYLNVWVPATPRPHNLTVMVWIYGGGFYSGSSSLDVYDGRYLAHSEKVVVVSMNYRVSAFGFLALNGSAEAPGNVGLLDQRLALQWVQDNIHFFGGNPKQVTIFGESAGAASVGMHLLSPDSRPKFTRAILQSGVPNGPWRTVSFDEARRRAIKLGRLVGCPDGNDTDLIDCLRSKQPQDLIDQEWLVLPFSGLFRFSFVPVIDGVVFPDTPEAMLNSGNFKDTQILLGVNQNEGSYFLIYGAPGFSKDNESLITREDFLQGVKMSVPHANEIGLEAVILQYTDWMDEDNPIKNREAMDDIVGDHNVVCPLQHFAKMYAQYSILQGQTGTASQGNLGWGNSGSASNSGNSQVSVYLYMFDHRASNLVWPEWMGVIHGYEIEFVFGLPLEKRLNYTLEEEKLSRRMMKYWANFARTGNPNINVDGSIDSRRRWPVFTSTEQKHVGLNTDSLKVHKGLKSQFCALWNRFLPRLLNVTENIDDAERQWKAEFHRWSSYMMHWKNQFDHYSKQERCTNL
Experimental: (§1) For the assessment of enzymatic inhibition, commercially available acetylcholinesterase from Electrophorus electricus (type V-S, Sigma Aldrich) was used, conducting minor modifications on Ellman’s protocol. […] Enzymatic activities were measured in a UV–Vis instrument (Hitachi U-2900) using PS cuvettes containing […] phosphate buffer (pH 8.0), 5,5′-dithiobis(2-nitrobenzoic acid) (DTNB, 0.88 mM, buffer solution), acetylthiocholine iodide as a model substrate, inhibitor, properly diluted aqueous enzyme solution, and water up to 1.2 ml. Solutions of the enzymes were prepared so as to keep the reaction rate within 0.12–0.15 Abs/min when [S] = 4 × KM.
Calculation of IC50 values was accomplished by plotting %I vs. log[I] and adjusting to a second-order equation.
(§2) Data are expressed as the mean ± SD.

[2] = molecular target: T1, acetylcholinesterase from Electrophorus electricus; assay: Kinetic study of AChE inhibition mode (Cornish-Bowden plots, inhibition constants); type: biochemical; settings: for Ki: mean ± SD
Experimental: as §1, with “KM. The formation of the chromophore was monitored during 125 s at 405 nm and 25 °C.” for “KM.”
For the calculation of the kinetic parameters of the free enzyme, and in the presence of 3a, five different substrate concentrations, ranging from ¼ KM to 4 × KM were used. Cornish-Bowden method[26] provided the mode of inhibition of 3a; for that purpose, two different plots were used: 1/v vs. [I] (Dixon plot) and [S]/v vs. [I]. […] Kinetic parameters (KM, Vmax, KM app, Vmax app) were obtained through non-linear regression analysis (least squares fit) using the GraphPad Prism 8.01 software and inhibition constants were calculated using the following equations: (1) KM,app=KM1+[I]/Kia/1+[I]/Kib (2) Vmaxapp=Vmax/1+[I]/Kib
as §2

[3] = test system: AChE; settings: cited from earlier work
[4] = [S] = 121 μM, Electrophorus electricus AChE, mean ± SD

With `CO[C@H]1O[C@H](COCc2cn(CCNc3c4c(nc5ccccc35)CCCC4)nn2)[C@@H](OCc2cn(CCNc3c4c(nc5ccccc35)CCCC4)nn2)[C@H](OCc2cn(CCNc3c4c(nc5ccccc35)CCCC4)nn2)[C@H]1OCc1cn(CCNc2c3c(nc4ccccc24)CCCC3)nn1` [Compound 3a] the IC50 [1] was 43.7 ± 7.3 nM, the “AChE rp (relative inhibition potency)” value [1] was 12.9 and the “AChE rp/n (inhibition potency on valency-corrected basis)” value [1] was 3.2. For the same compound, the “mode of inhibition of AChE” value ([2]; Cornish-Bowden method) was “Mixed inhibition”, the Ki ([2]; binding to enzyme-substrate complex, read-out: Kib (non-competitive inhibition constant)) was 45 ± 5.9 nM and the Ki ([2]; binding to free enzyme, read-out: Kia (competitive inhibition constant)) was 31.6 ± 2 nM.
In the case of `OCc1cn(CCNc2c3c(nc4ccccc24)CCCC3)nn1` [Compound 3b, (1-(2-((1,2,3,4-tetrahydroacridin-9-yl)amino)ethyl)-1H-1,2,3-triazol-4-yl)metanol], the IC50 [1] is reported as 565 ± 79 nM.
With `CO[C@H]1O[C@H](COCc2cn(CCCNc3c4c(nc5ccccc35)CCCC4)nn2)[C@@H](OCc2cn(CCCNc3c4c(nc5ccccc35)CCCC4)nn2)[C@H](OCc2cn(CCCNc3c4c(nc5ccccc35)CCCC4)nn2)[C@H]1OCc1cn(CCCNc2c3c(nc4ccccc24)CCCC3)nn1` [Compound 4a] the IC50 [1, 4] was 60.2 ± 5.5 nM, the “AChE rp (relative inhibition potency)” value [1] was 5.8 and the “AChE rp/n (inhibition potency on valency-corrected basis)” value [1] was 1.5.
Work on `OCc1cn(CCCNc2c3c(nc4ccccc24)CCCC3)nn1` [Compound 4b, (1-(3-((1,2,3,4-tetrahydroacridin-9-yl)amino)propyl)-1H-1,2,3-triazol-4-yl)metanol] yielded an IC50 [1] of 348 ± 23 nM.
With `CO[C@H]1O[C@H](COCc2cn(CCCCCCNc3c4c(nc5ccccc35)CCCC4)nn2)[C@@H](OCc2cn(CCCCCCNc3c4c(nc5ccccc35)CCCC4)nn2)[C@H](OCc2cn(CCCCCCNc3c4c(nc5ccccc35)CCCC4)nn2)[C@H]1OCc1cn(CCCCCCNc2c3c(nc4ccccc24)CCCC3)nn1` [Compound 5a] the IC50 [1] was 12.5 ± 3.3 nM and the “AChE rp (relative inhibition potency)” value [1] was 1.0.
For `OCc1cn(CCCCCCNc2c3c(nc4ccccc24)CCCC3)nn1` [Compound 5b, (1-(6-((1,2,3,4-tetrahydroacridin-9-yl)amino)hexyl)-1H-1,2,3-triazol-4-yl)metanol], the “less active when connected to the central multivalent sugar scaffold” value [1] was 75% and the IC50 [1] was 12.6 ± 2.4 nM.
With `CO[C@H]1O[C@H](COCc2cn(CCCCCCCCNc3c4c(nc5ccccc35)CCCC4)nn2)[C@@H](OCc2cn(CCCCCCCCNc3c4c(nc5ccccc35)CCCC4)nn2)[C@H](OCc2cn(CCCCCCCCNc3c4c(nc5ccccc35)CCCC4)nn2)[C@H]1OCc1cn(CCCCCCCCNc2c3c(nc4ccccc24)CCCC3)nn1` [Compound 6a] the IC50 [1, 4] was 232 ± 21 nM and the “AChE rp (relative inhibition potency)” value [1] was 0.03.
For `OCc1cn(CCCCCCCCNc2c3c(nc4ccccc24)CCCC3)nn1` [Compound 6b, (1-(8-((1,2,3,4-Tetrahydroacridin-9-yl)amino)octyl)-1H-1,2,3-triazol-4-yl)metanol], the “less active when connected to the central multivalent sugar scaffold” value [1] was “more than 99%” and the IC50 [1] was 7.1 ± 1 nM.
With `CO[C@H]1O[C@H](CO)[C@@H](O)[C@H](O)[C@H]1O` [Methyl α-D-glucopyranoside, methyl α-D-glucopyranoside, reference compound] the “AChE inhibition (N.I.)” value ([1]; Tested at 100 μM inhibitor concentration, [S] = 121 μM) was “N.I.^d”.
In the case of `c1ccc2c(NCCCCCCCNc3c4c(nc5ccccc35)CCCC4)c3c(nc2c1)CCCC3` [bis(7)tacrine], the “fold stronger AChE inhibitor than tacrine” value [3] is listed as roughly 1000 fold.
